Reference: the supplement of paper PMC11821682

How the values were obtained:
[1] = system: Danio rerio embryo; experiment: BMC10 any morphological effect or mortality at 120 hpf; higher = less toxic
Protocol: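 ZBEscreen: dechorionated Tropical 5D zebrafish embryos were exposed from 4 hpf in 96-well plates (1% DMSO, 28 °C). All compounds were first tested at 100 µM; hits were retested at 0.005-100 µM. Morphology and mortality were scored at 120 hpf and fitted as BMC10 (3-parameter log-logistic, extra risk). The embryonic photomotor response at 24 hpf and the larval photomotor response at 120 hpf are given as lowest effect levels (K-S test, p<0.01). NA = not significant up to 100 µM; NT = not tested.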

[2] = system: HL-60; experiment: Cell Health Index (toxicity pseudo-probability over dose series) (index 0-1); higher = more cytotoxic / cell stress;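 also: HL-60 cells exposed 4 h at 37 °C to ten threefold dilutions spanning 5 nM to 100 µM, multiparametric flow cytometry features scored by machine-learning classification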

Structure (SMILES)	BMC10 any morphological effect or mortality [1]	Cell Health Index [2]
CC(C)C1=C2[C@H]3CC[C@@H]4[C@@]5(C)CC[C@H](OC(=O)CC(C)(C)C(=O)O)C(C)(C)[C@@H]5CC[C@@]4(C)[C@]3(C)CC[C@@]2([C@@H](O)CN(CCN(C)C)Cc2ccc(Cl)cc2)CC1=O	> 100 µM	0.422
O=C(O)/C(S)=C/c1ccc(I)cc1	> 100 µM	0.32
N#C[C@@]1(c2ccc3c(N)ncnn23)O[C@H](CO)[C@@H](O)[C@H]1O	> 100 µM	0.185
Nc1n[nH]c2nnc(-c3c(-c4ccccc4)nn4ccccc34)cc12	> 100 µM	0.299
CCN(CC)Cc1ccc(C(=O)N(CCc2ccccc2OC)[C@@H]2CCNC2)cc1.Cl.Cl	> 100 µM	0.318
Nc1ccc(C(=O)Nc2cccc(-c3nc(N4CCOCC4)c4oc5ncccc5c4n3)c2)cn1	> 100 µM	0.615
CCc1cccc(CC)c1NC(=O)N1Cc2[nH]nc(NC(=O)c3ccc(N4CCN(C)CC4)cc3)c2C1	> 100 µM	0.634
O=C(c1ccccc1)c1ccc2nc(NC(=O)c3csc(C4CCN(c5ncnc6ccsc56)CC4)n3)[nH]c2c1	> 100 µM	0.507
Cc1nnnn1/N=C\c1ccc(O)c(C(c2ccc(O)cc2)c2cc(/C=N/n3nnnc3C)ccc2O)c1 (stereo not given)	> 100 µM	0.389
O.Oc1cc(O)c2c(c1)O[C@H](c1ccc(O)c(O)c1)[C@@H](O)C2 (racemic) [(±)-Catechin]	> 100 µM	0.804
O=C(/C=C/c1ccc(O)c(O)c1)O[C@@H]1C[C@](OC(=O)/C=C/c2ccc(O)c(O)c2)(C(=O)O)C[C@@H](O)[C@H]1O [1,5-Dicaffeoylquinic acid]	> 100 µM	0.569
C[C@@]1(O)[C@H](O)[C@@H](CO)O[C@H]1n1cnc2c(N)ncnc21 [2'-C-Methyladenosine]	> 100 µM	0.266
O=C(O)c1ccc2nc(-c3ccccc3)c(-c3ccccc3)nc2c1 [2,3-diphenylquinoxaline-6-carboxylic acid]	> 100 µM	0.217
OC[C@H]1OC(O)C[C@@H](O)[C@@H]1O (stereo partly drawn) [2-deoxy-D-Glucose]	> 100 µM	0.325
O=c1c(-c2ccc(O)c(O)c2)coc2cc(O)ccc12 [3',4',7-Trihydroxyisoflavone]	> 100 µM	0.478
O=C(/C=C/c1ccc(O)c(O)c1)O[C@@H]1[C@H](O)C[C@@](O)(C(=O)O)C[C@H]1OC(=O)/C=C/c1ccc(O)c(O)c1 [3,4-Dicaffeoylquinic acid]	> 100 µM	0.416
O=C(/C=C/c1ccc(O)c(O)c1)O[C@@H]1C[C@](O)(C(=O)O)C[C@@H](OC(=O)/C=C/c2ccc(O)c(O)c2)[C@H]1O [3,5-Dicaffeoylquinic acid]	> 100 µM	0.614
Nc1nccc2c1ncn2[C@@H]1O[C@H](CO)[C@@H](O)[C@H]1O [3-Deazaadenosine]	> 100 µM	0.318
O=C(/C=C/c1ccc(O)c(O)c1)O[C@H]1[C@H](O)C[C@](O)(C(=O)O)C[C@H]1OC(=O)/C=C/c1ccc(O)c(O)c1 [4,5-Dicaffeoylquinic acid]	> 100 µM	0.542
C#Cc1cn([C@H]2C[C@H](O)[C@@H](CO)O2)c(=O)nc1N [5'-Ethynyl-2'-deoxycytidine]	> 100 µM	0.13
Cl.NCC(=O)CCC(=O)O [5-Aminolevulinic acid]	> 100 µM	0.194
O=C(/C=C/c1ccc(O)c(O)c1)O[C@@H]1C[C@@](O)(C(=O)O)C[C@@H](O)[C@@H]1O [5-Caffeoylquinic acid]	> 100 µM	0.295
O=c1[nH]cc(F)c(=O)[nH]1 [5-Fluorouracil]	> 100 µM	0.159
O=c1[nH]c(=O)n([C@H]2C[C@H](O)[C@@H](CO)O2)cc1CO [5-Hydroxymethyl-2'-deoxyuridine]	> 100 µM	0.178
O=c1cc(-c2ccccc2)oc2c(O)c(O)ccc12 [7,8-Dihydroxyflavone]	> 100 µM	0.507

Structure (SMILES)	BMC10 any morphological effect or mortality [1]	Cell Health Index [2]
CCCOCCCCCCCCCC(=O)O [10-propoxy-Decanoic acid]	> 100 µM	0.168
O[C@H]1[C@@]2([H])[C@](CC[C@]2([H])[C@@](O)(C)CC/C=C(C)/C)(C)[C@]3(C)CC[C@]4([H])[C@@](CC[C@H](O[C@]5([H])O[C@H](CO)[C@@H](O)[C@H](O)[C@H]5O)C4(C)C)(C)[C@@]3([H])C1 [20(R)-Ginsenoside Rh2]	> 100 µM	0.227
O=C(O)CCCCCCCCCCCCCCCCCCCO [20-hydroxy Arachidic acid]	> 100 µM	0.215
CC1(C)[C@@H]2CC[C@@]1(C)C(=O)C2 [(1R)-(+)-Camphor]	> 100 µM	0.135
Oc1cc(O)c2c(c1)O[C@@H](c1ccc(O)c(O)c1)[C@H](O)C2 [(-)-Catechin]	> 100 µM	0.201
O=C(O[C@@H]1Cc2c(O)cc(O)cc2O[C@@H]1c1ccc(O)c(O)c1)c1cc(O)c(O)c(O)c1 [(-)-Epicatechin gallate]	> 100 µM	0.807
O=C(O[C@@H]1Cc2c(O)cc(O)cc2O[C@@H]1c1cc(O)c(O)c(O)c1)c1cc(O)c(O)c(O)c1 [(-)-Epigallocatechin gallate]	> 100 µM	0.854
Cl.c1ccc([C@H]2CN3CCSC3=N2)cc1 [(-)-Levamisole]	> 100 µM	0.173
Cl.NCCc1ccc(S(=O)(=O)F)cc1 [AEBSF]	> 100 µM	0.32
c1ccc(CNCc2ccc(CN3CCCNCCNCCCNCC3)cc2)nc1 [AMD 3465 parent]	> 100 µM	0.232
N=C(N)NCCC[C@H](NC(=O)c1ccc2ccccc2c1O)C(=O)N1CCC[C@H]1C(N)=O.O=C(O)C(F)(F)F [APC 366]	> 100 µM	0.223
Nc1nc(NC2CC2)c2ncn([C@H]3C=C[C@@H](CO)C3)c2n1.O=S(=O)(O)O [Abacavir]	> 100 µM	0.116
CC(=O)N[C@@H]([C@@H](O)[C@H](O)[C@H](O)CO)[C@@H](O)CC(=O)C(=O)O [Aceneuramic acid]	> 100 µM	0.172
Nc1nc2c(ncn2COCCO)c(=O)[nH]1 [Acyclovir]	> 100 µM	0.214
CC(C)(C)C(=O)OCOP(=O)(COCCn1cnc2c(N)ncnc21)OCOC(=O)C(C)(C)C [Adefovir dipivoxil]	> 100 µM	0.258
C1=C2CCCN[C@H]2[C@@H]2C[C@H]1[C@H]1CCCCN1C2 [Aloperine]	> 100 µM	0.209
Cl.NC12C[C@H]3C[C@@H](C1)C[C@@H](C2)C3 [Amantadine]	> 100 µM	0.195
Cc1cccc(C)c1N(CC(=O)Nc1ccc(-c2ncon2)cc1)C(=O)C1CCS(=O)(=O)CC1 [Amenamevir]	> 100 µM	0.215
O=c1cc(-c2ccc(O)c(-c3c(O)cc(O)c4c(=O)cc(-c5ccc(O)cc5)oc34)c2)oc2cc(O)cc(O)c12 [Amentoflavone]	> 100 µM	0.74
CC(C)CN(C[C@@H](O)[C@H](Cc1ccccc1)NC(=O)O[C@H]1CCOC1)S(=O)(=O)c1ccc(N)cc1 [Amprenavir]	> 100 µM	0.181
COc1cc(OC)c2c(=O)nc(-c3cc(C)c(OCCO)c(C)c3)[nH]c2c1 [Apabetalone]	> 100 µM	0.344
COc1ccc(C[C@H]2COC(=O)[C@@H]2Cc2ccc(O[C@@H]3O[C@H](CO)[C@@H](O)[C@H](O)[C@H]3O)c(OC)c2)cc1OC [Arctiin]	> 100 µM	0.192
C[C@H]1[C@H](C)CC[C@]2(C(=O)O)CC[C@]3(C)C(=CC[C@@H]4[C@@]5(C)C[C@@H](O)[C@H](O)[C@@](C)(CO)[C@@H]5CC[C@]43C)[C@H]12 [Asiatic acid]	> 100 µM	0.478
CC(=O)Oc1ccccc1C(=O)O [Aspirin]	> 100 µM	0.198
CC(C)(O)[C@@H]1CC[C@](C)([C@H]2[C@@H](O)C[C@@]3(C)[C@@H]4C[C@H](O[C@@H]5O[C@H](CO)[C@@H](O)[C@H](O)[C@H]5O)[C@H]5C(C)(C)[C@@H](O[C@@H]6OC[C@@H](O)[C@H](O)[C@H]6O)CC[C@@]56C[C@@]46CC[C@]23C)O1 [Astragaloside IV]	> 100 µM	0.16
